Measured values taken from publication PMC8696028, “Tricarboxylate Citrate Transporter of an Oleaginous Fungus Mucor circinelloides WJ11: From Function to Structure and Role in Lipid Production” (Frontiers in Nutrition, 2021).

Target: T1, Tct (tricarboxylate citrate transporter; tricarboxylate carrier) (Mucor circinelloides, UniProt S2K4S3)
T1 construct: gene HMPREF1544_06035; full-length tct (321 residues), E. coli codon-optimised, pET30a(+) NdeI/HindIII with C-terminal His tag, E. coli BL21(DE3); urea-denatured, Ni-purified, renatured, reconstituted in liposomes
T1 sequence (S2K4S3 entry or part of it): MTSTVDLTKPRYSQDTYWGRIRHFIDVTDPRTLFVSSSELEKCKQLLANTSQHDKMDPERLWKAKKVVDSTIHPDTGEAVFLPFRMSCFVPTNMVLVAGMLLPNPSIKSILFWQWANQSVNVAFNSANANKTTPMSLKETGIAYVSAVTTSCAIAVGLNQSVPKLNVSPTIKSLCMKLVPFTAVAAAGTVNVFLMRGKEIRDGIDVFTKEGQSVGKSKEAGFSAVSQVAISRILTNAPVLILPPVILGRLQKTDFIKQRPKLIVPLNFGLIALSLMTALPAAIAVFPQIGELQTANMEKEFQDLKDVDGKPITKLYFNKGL
Assay: […]citrate/citrate exchange in Tct-reconstituted proteoliposomes, inhibitor-stop method
Assay type: biochemical
Conditions: 10 mM internal citrate, 0.01 mM external [14C]citrate, 2 min

Question: Cc1ncc(COP(=O)(O)O)c(C=O)c1O [pyridoxal 5'-phosphate] was tested. Which “inhibition at 20 mM” value did it give?
Answer: Pyridoxal-5'-phosphate (PLP) and pHMB strongly inhibit Tct transport activity
